In PubChem BioAssay (NCI):
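Five concentrations, 48 hours, 96-well plates. Definition used: TGI = concentration required for complete inhibition of growth.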

Tested on: SN12K1 renal
Assay: inhibition of tumour cell growth, NCI panel, 48 h

Row | Compound | TGI [µM]
1 | N[C@H](C(=O)O)[C@@H]1CC(Cl)=NO1 | > 1000
2 | CNC(=O)OCc1nc(SSC(C)(C)C)n(C)c1COC(=O)NC | 14.9
